# Entries after “also recorded” stand apart in the source; their conditions may differ.
# Key:
# Format in all cases: binding
# [1] = target: T1, TrkA (Homo sapiens, UniProt P04629); assay: KINOMEscan primary screen against TrkA; details: % of control; for % Ctrl. TrkA @10 nM: 10 nM compound; for % Ctrl. TrkA @100 nM: 100 nM compound
# Procedure: (§1) Compounds were initially tested in a primary screen against TrkA (at 10 and 100 nM) and AurA (at 100 nM and 1 μM) using the KINOMEscan technology from DiscoverX Corporation, Fremont, Calif., USA (https://www.discoverx.com/services/drug-discovery-development-services/kinase-profiling/kinomescan).
# Results were reported as % of control (% Ctrl.=(test compound signal−positive control signal)/(DMSO signal−positive control signal). KINOMEscan is an active site-directed competition binding assay that quantitatively measures the ability of a compound to compete with an immobilized, active-site directed ligand.
# [2] = target: T2, AurA (Homo sapiens, UniProt O14965); assay: KINOMEscan primary screen against AurA; details: % of control; for % Ctrl. AurA @100 nM: 100 nM compound; for % Ctrl. AurA @1 μM: 1 μM compound
# T2 sequence (O14965 1-403): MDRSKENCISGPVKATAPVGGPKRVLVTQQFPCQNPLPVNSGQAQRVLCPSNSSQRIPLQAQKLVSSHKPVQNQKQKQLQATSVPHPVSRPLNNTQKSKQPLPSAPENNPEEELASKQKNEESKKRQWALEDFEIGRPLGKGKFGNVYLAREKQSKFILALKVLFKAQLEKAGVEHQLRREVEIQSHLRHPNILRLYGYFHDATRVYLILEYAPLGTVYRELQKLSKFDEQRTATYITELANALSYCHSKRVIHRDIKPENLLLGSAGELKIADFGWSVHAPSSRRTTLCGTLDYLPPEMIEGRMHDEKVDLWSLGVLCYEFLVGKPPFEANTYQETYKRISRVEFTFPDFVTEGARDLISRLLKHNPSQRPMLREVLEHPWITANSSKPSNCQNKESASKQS
# Procedure: as §1
# [3] = test system: panel of 97 kinases; assay: Selectivity profiling, scanEDGE kinase panel (KINOMEscan); details: 100 nM, cut-off <35% ctrl; for # Hits: N = 92 non-mutant kinases; for Selectivity Score: inhibited kinases/tested kinases
# Procedure: Selectivity profiling was done over a panel of 97 kinases at 100 nM concentration (scanEDGE assay panel from Discover X, which also uses the KINOMEscan technology, whereat KIT(D816V) and KIT (V559D, T6701) were replaced by TrkB and TrkC). […] The employed profiling panel consisted of the following kinases: ABL1(T3151)-phosphorylated, ABL1-nonphosphorylated, ABL1-phosphorylated, ACVR1B, ADCK3, AKT1, AKT2, ALK, AURKA, AURKB, AXL, BMPR2, BRAF, BRAF (V600E), BTK, CDK11, CDK2, CDK3, CDK7, CDK9, CHEK1, CSF1R, CSNK1D, CSNK1G2, DCAMKL1, DYRK1B, EGFR, EGFR (L858R), EPHA2, ERBB2, ERBB4, ERK1, FAK, FGFR2, FGFR3, FLT3, GSK3B, IGF1R, IKK-alpha, IKK-beta, INSR, JAK2 (JH1domain-catalytic), JAK3 (JH1domain-catalytic), JNK1, JNK2, JNK3, KIT, LKB1, MAP3K4, MAPKAPK2, MARK3, MEK1, MEK2, MET, MKNK1, MKNK2, MLK1, p38-alpha, p38-beta, PAK1, PAK2, PAK4, PCTK1, PDGFRA, PDGFRB, PDPK1, PIK3C2B, PIK3CA, PIK3CG, PIM1, PIM2, PIM3, PKAC-alpha, PLK1, PLK3, PLK4, PRKCE, RAF1, RET, RIOK2, ROCK2, RSK2 (Kin. Dom. 1-N-terminal), SNARK, SRC, SRPK3, TGFBR1, TIE2, TRKA, TRKB, TRKC, TSSK1B, TYK2 (JH1domain-catalytic), ULK2, VEGFR2, YANK3, ZAP70
# [4] = target: T1, TrkA; assay: KdELECT Kd measurement (KINOMEscan), TrkA; details: for Kd: duplicate 11-point dose-response curves
# Procedure: (§2) Kd measurements were done via the KdELECT product service from DiscoverX Corporation (Freemont, Calif., USA) which also employs the KINOMEscan technology. Here, inhibitor binding constants (Kd values) are calculated from duplicate 11-point dose-response curves.
# [5] = target: TrkA; assay: KdELECT Kd measurement (KINOMEscan), TrkA; details: for ΔpKd: TrkA pKd versus AurA pKd
# Procedure: as §2
# [6] = target: T2, AurA; assay: KdELECT Kd measurement (KINOMEscan), AurA; details: for Kd: duplicate 11-point dose-response curves
# Procedure: as §2
# T1 sequence (P04629 33-796): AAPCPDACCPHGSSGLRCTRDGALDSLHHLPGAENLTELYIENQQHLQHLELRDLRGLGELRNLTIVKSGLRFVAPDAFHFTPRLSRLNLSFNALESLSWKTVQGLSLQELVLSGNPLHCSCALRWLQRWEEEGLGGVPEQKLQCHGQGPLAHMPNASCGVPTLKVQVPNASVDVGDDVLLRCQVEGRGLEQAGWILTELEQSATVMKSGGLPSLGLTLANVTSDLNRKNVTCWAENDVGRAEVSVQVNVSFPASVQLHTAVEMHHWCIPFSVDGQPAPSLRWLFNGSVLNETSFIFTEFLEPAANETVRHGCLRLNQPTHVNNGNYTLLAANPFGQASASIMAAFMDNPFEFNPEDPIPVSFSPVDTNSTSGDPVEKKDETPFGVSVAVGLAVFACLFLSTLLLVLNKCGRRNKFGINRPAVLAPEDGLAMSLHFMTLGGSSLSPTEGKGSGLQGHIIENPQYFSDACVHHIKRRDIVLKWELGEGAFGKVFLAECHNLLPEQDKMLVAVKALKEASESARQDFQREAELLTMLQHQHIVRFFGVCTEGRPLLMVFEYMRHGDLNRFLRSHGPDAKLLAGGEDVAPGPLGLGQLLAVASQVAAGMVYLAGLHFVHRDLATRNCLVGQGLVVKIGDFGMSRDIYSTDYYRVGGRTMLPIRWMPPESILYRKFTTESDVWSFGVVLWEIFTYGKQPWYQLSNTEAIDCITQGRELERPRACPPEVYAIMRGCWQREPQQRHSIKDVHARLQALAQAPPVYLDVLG
SMILES,% Ctrl. TrkA @10 nM [1],% Ctrl. TrkA @100 nM [1],% Ctrl. AurA @100 nM [2],% Ctrl. AurA @1 μM [2],# Hits [3],TrkA [pKd] [4],Kd [4],ΔpKd [5],ΔΔpKd (selectivity towards AurA compared to tozasertib) ([5]; compared to tozasertib),AurA [pKd] [6],Kd [6],Selectivity Score [3],List of inhibited kinases [3]
"Cc1ccc(Sc2nc(Nc3cc(C)[nH]n3)cc(N3CCN(C)CC3)n2)c(C)c1 [b9, 2-[(2,4-dimethylphenyl)sulfanyl]-N-(5-methyl-1H-pyrazol-3-yl)-6-(4-methylpiperazin-1-yl)pyrimidin-4-amine]",77 % Ctrl.,24 % Ctrl.,51 % Ctrl.,3.8 % Ctrl.,,,,,,,,,
"Cc1cc(Nc2cc(N3CCN(C)CC3)nc(Sc3ccc(NC(=O)C4CC4)cc3)n2)n[nH]1 [Tozasertib, N-[4-({4-[(5-methyl-1H-pyrazol-3-yl)amino]-6-(4-methylpiperazin-1-yl)pyrimidin-2-yl}sulfanyl)phenyl]cyclopropanecarboxamide, reference compound]",31 % Ctrl.,5.2 % Ctrl.,,,10,,,,,,,,"TrkA, ABL1, AurA, AurB, AXL,; also recorded: CK1d, FLT3, JAK2, PLK4, RET"
"Cc1cc(Nc2cc(N3CCN(C)CC3)nc(SCc3cccc4ccccc34)n2)n[nH]1 [b6, N-(5-methyl-1H-pyrazol-3-yl)-6-(4-methylpiperazin-1-yl)-2-[(naphthalen-1-ylmethyl)sulfanyl]pyrimidin-4-amine]",74 % Ctrl.,35 % Ctrl.,63 % Ctrl.,7.4 % Ctrl.,,,,,,,,,
"Cc1cc(Nc2cc(N3CCN(C)CC3)nc(SCc3ccc(C)c(C)c3)n2)n[nH]1 [b3, 2-{[(3,4-dimethylphenyl)methyl]sulfanyl}-N-(5-methyl-1H-pyrazol-3-yl)-6-(4-methylpiperazin-1-yl)pyrimidin-4-amine]",53 % Ctrl.,11 % Ctrl.,46 % Ctrl.,4.5 % Ctrl.,,,,,,,,,
"Cc1ccc(CSc2nc(Nc3cc(C)[nH]n3)cc(N3CCN(C)CC3)n2)cc1 [b8, N-(5-methyl-1H-pyrazol-3-yl)-2-{[(4-methylphenyl)methyl]sulfanyl}-6-(4-methylpiperazin-1-yl)pyrimidin-4-amine]",35 % Ctrl.,5.3 % Ctrl.,30 % Ctrl.,1.3 % Ctrl.,17,8.4,0.0038 µM,1.1,,7.3,0.053 µM,0.185,"TrkA, TrkB, TrkC, ABL1, AurA, and AXL, BTK, FGFR3, FLT3, JAK2, and JAK3, KDR, KIT, PLK4, RET, SRC, and TYK2"
"Cc1ccc(C)c(CSc2nc(Nc3cc(C)[nH]n3)cc(N3CCN(C)CC3)n2)c1 [b2, 2-{[(2,5-dimethylphenyl)methyl]sulfanyl}-N-(5-methyl-1H-pyrazol-3-yl)-6-(4-methylpiperazin-1-yl)pyrimidin-4-amine]",93 % Ctrl.,31 % Ctrl.,54 % Ctrl.,9.4 % Ctrl.,,,,,,,,,

# Second part, led by results:
% Ctrl. TrkA @10 nM [1],% Ctrl. TrkA @100 nM [1],% Ctrl. AurA @100 nM [2],% Ctrl. AurA @1 μM [2],# Hits [3],TrkA [pKd] [4],Kd [4],ΔpKd [5],ΔΔpKd (selectivity towards AurA compared to tozasertib) ([5]; compared to tozasertib),AurA [pKd] [6],Kd [6],Selectivity Score [3],SMILES,List of inhibited kinases [3]
69 % Ctrl.,18 % Ctrl.,100 % Ctrl.,79 % Ctrl.,,,,,,,,,"CN1CCN(c2cc(Nc3cc(C(C)(C)C)[nH]n3)nc(Sc3ccccc3)n2)CC1 [a8, N-(5-tert-butyl-1H-pyrazol-3-yl)-6-(4-methylpiperazin-1-yl)-2-(phenylsulfanyl) pyrimidin-4-amine]",
50 % Ctrl.,6.7 % Ctrl.,2.6 % Ctrl.,0.1 % Ctrl.,,,,,,,,,"Cc1cccc(Sc2nc(Nc3cc(C)[nH]n3)cc(N3CCN(C)CC3)n2)c1 [b4, N-(5-methyl-1H-pyrazol-3-yl)-2-[(3-methylphenyl)sulfanyl]-6-(4-methylpiperazin-1-yl)pyrimidin-4-amine]",
58 % Ctrl.,10 % Ctrl.,15 % Ctrl.,0.95 % Ctrl.,,7.5,0.03 µM,0.1,1,7.4,0.041 µM,,"Cc1cc(Nc2cc(N3CCN(C)CC3)nc(Sc3ccccc3)n2)n[nH]1 [Reference 2, N-(5-methyl-1H-pyrazol-3-yl)-6-(4-methylpiperazin-1-yl)-2-(phenylsulfanyl)-pyrimidin-4-amine, reference compound]",
90 % Ctrl.,32 % Ctrl.,36 % Ctrl.,2.4 % Ctrl.,,,,,,,,,"Cc1cc(Nc2cc(N3CCN(C)CC3)nc(Sc3cccc(C(F)(F)F)c3)n2)n[nH]1 [b5, N-(5-methyl-1H-pyrazol-3-yl)-6-(4-methylpiperazin-1-yl)-2-{[3-(trifluoromethyl)phenyl]sulfanyl}pyrimidin-4-amine]",
15 % Ctrl.,0.95 % Ctrl.,49 % Ctrl.,4.5 % Ctrl.,19,8.8,0.0015 µM,1.8,,7.0,0.093 µM,0.207,"CN1CCN(c2cc(Nc3cc(C4CCCC4)[nH]n3)nc(Sc3ccccc3)n2)CC1 [a4, N-(5-cyclopentyl-1H-pyrazol-3-yl)-6-(4-methylpiperazin-1-yl)-2-(phenylsulfanyl)pyrimidin-4-amine]","TrkA, TrkB, TrkC, ABL1, AurA,; also recorded: AXL, FGFR2, FGFR3, FLT3, FMS,; also recorded: INSR, JAK2, JAK3, KIT, MAP2K2,; also recorded: MET, PDGFRb, RET, SRC"
93 % Ctrl.,29 % Ctrl.,87 % Ctrl.,76 % Ctrl.,,,,,,,,,"CN1CCN(c2cc(Nc3cc4ccccn4n3)nc(Sc3ccccc3)n2)CC1 [a3, 6-(4-methylpiperazin-1-yl)-2-(phenylsulfanyl)-N-(pyrazolo[1,5-a]pyridin-2-yl)pyrimidin-4-amine]",
80 % Ctrl.,11 % Ctrl.,7.3 % Ctrl.,0.5 % Ctrl.,,,,,,,,,"Cc1ccc(C)c(Sc2nc(Nc3cc(C)[nH]n3)cc(N3CCN(C)CC3)n2)c1 [b1, 2-[(2,5-dimethylphenyl)sulfanyl]-N-(5-methyl-1H-pyrazol-3-yl)-6-(4-methylpiperazin-1-yl)pyrimidin-4-amine]",

# — patent publication US20200399250A1, “Pyrimidine Derivatives as Tropomyosin Receptor Kinase A (TRKA) Inhibitors” (BIOMED X GMBH, priority 2017, published 2020)
